{
  "source": "patent US10751390B2",
  "about": "“Lipidated peptides as neuroprotective agents” (USTAV ORGANICKE CHEMIE A BIOCHEMIE AV CR, V.V.I., priority 2014, dated 2020)",
  "format_in_all_cases": "in vivo",
  "key": {"[1]": {"test_system": "insulin signaling cascade (PDK-1, Akt, GSK-3β)", "test": "Western blot of insulin signaling cascade in hippocampi of 6-month-old MSG mice after 14-day treatment", "conditions": "14 days SC twice a day, liraglutide 0.2 mg/kg, vs saline", "method": "(§1) Groups of MSG mice (n=10 animals per group) were for 14 days SC administered with liraglutide at a dose 0.2 mg/kg, or palmitoylated analog of PrRP31 at a dose 5 mg/kg, or palmitoylated analog with PrRP31 with dichlorophenylalanin in position 31 at a dose 5 mg/kg dissolved in saline, twice a day, at 8 a.m. and 6:00 p.m. Control mice (n=10 animals per group), NMRI and MSG, were injected in the same manner with saline (the volume was always 0.2 ml/mouse).\n(§2) Overnight (15 hours) fasted mice with ad libitum access to water were weighed, and their plasma glucose concentration was measured using Glucocard glucometer. After decapitation, the brains were dissected on ice, and cut between hemispheres. For immunohistochemical staining the half of the brain was fixed for 24 hours in 4% paraformaldehyde and dehydrated in 70% ethanol, afterward. For the western blot (WB) analysis, the hippocampus was dissected from the second half of the brain, and lysed in cold lysis buffer (62.5 mmol·l^−1 Tris-HCl, pH 6.8 with 1% sodium deoxycholate, 1% Triton X-100 Complete, 50 mmol·l^−1 NaF, 1 mmol·l^−1 Na3VO4), homogenized, sonicated 10 minutes and stored at −20° C. The blood plasma was prepared, and stored at −20° C.\n(§3) In homogenized hippocampi the protein level was measured using BCA kit (Pierce, Thermo Fisher Scientific, Rockfor, Ill., USA), then the samples were diluted in sample buffer (62.5 mmol/l Tris-HCl pH 6.8, 10% glycerol, 2% SDS, 0.01% bromfenol blue, 5% merkaptoethanol, 50 mmol/l NaF and 1 mmol/l Na3VO4) to final concentration […]. WB method and analysis of the results were performed according Nagelová et al. (Nagelova et al., 2014)."}, "Tau protein [2]": {"test_system": "Tau protein", "test": "Western blot of Tau phosphorylation in hippocampi of 6-month-old MSG mice after 14-day treatment", "conditions": "14 days SC twice a day, liraglutide 0.2 mg/kg, vs saline", "method": "as §1, §2, §3"}, "Tau protein [3]": {"test_system": "Tau protein", "test": "Immunohistochemical fluorescent double staining of Tau phosphorylation in CA1 region of hippocampi of MSG mice", "conditions": "6-month-old MSG mice, 14 days SC twice a day; liraglutide 0.2 mg/kg, PrRP31 analog 5 mg/kg; epitopes Thr212 and Ser202/Thr205", "method": "as §1, §2\nTo verify the results obtained from WB analysis the immunohistochemical staining was performed. Ten micrometer (10 μm) thick sections were prepared at INSERM, Lille, France. […]"}},
  "data": [
    {"substance": "(N-palm)SRTHRHSMEIRTPDINPAWYASRGIRPVGRF-NH2 [palmitoylated analog of PrRP31]", "values": [
      {"measurement": "phosphorylation of Akt (Thr308)", "setting": "[1]; PrRP31 analog 5 mg/kg", "value": "more pronounced phosphorylation"},
      {"measurement": "activation of kinases implicated in insulin signaling cascade", "setting": "[1]; PrRP31 analogs 5 mg/kg", "value": "Enhanced activation"},
      {"measurement": "phosphorylation of GSK-3β (Ser9)", "setting": "[1]; PrRP31 analogs 5 mg/kg", "value": "more pronounced phosphorylation"},
      {"measurement": "not-phosphorylated Tau (antibody Tau1)", "setting": "Tau protein [2]; PrRP31 analog 5 mg/kg", "value": "did not show any significant differences among groups"},
      {"measurement": "phosphorylation of Tau protein at epitope Ser396", "setting": "Tau protein [2]; PrRP31 analogs 5 mg/kg", "value": "decreased phosphorylation"},
      {"measurement": "phosphorylation of Tau protein at epitope Thr212", "setting": "Tau protein [2]; PrRP31 analogs 5 mg/kg", "value": "decreased phosphorylation"},
      {"measurement": "phosphorylation of Tau protein at epitope Thr231", "setting": "Tau protein [2]; PrRP31 analogs 5 mg/kg", "value": "decreased phosphorylation"},
      {"measurement": "Tau phosphorylation in hippocampal region CA1 (fluorescent signal)", "setting": "Tau protein [3]", "value": "decreased"}
    ]}
  ]
}
